According to patent US7951838B2, “Substituted spirocyclic chromanamine compounds as Beta-Secretase modulators and methods of use” (Amgen Inc., priority 2007, dated 2011):

Experiments:
BACE [1] = biological target: T1, BACE (Homo sapiens, UniProt P56817); experiment: In vitro enzymatic BACE FRET assay (Enzyme Assay); format: biochemical; conditions: pH 4.2, enzyme 0.2 nM, FRET substrate 50 nM
T1 construct: Cells stably expressing Amyloid Precursor Protein (APP) were plated at a density of 40K cells/well in 96 well plates; endogenous in cells
Method: In Vitro Enzymatic BACE FRET (Fluorescence Resonance Energy Transfer) Assay (Enzyme Assay)
Assay buffer is 0.05 M acetate, pH 4.2, 10% DMSO final, 100 uM genapol (which is a nonionic detergent, below it's Critical Micelle Concentration). Enzyme (0.2 nM) is pre-incubated for one hour with inhibitors added in 1 uL of DMSO. Then the assay is started by the addition of FRET substrate (50 nM) and incubated for one hour. The FRET assay is terminated with by addition of Tris buffer, which raises the pH to neutrality, and the fluorescence is determined The FRET substrate is a peptide with commercially available fluorophore and quencher, on opposite sides of the BACE cleavage site. Proteolytic cleavage of the FRET substrate releases quenching of fluorescence (excitation 488 nm and […]).

BACE [2] = biological target: T1, BACE; experiment: BACE cell-based assay (Cell Assay), inhibition of Aβ40 by sandwich ELISA; conditions: Aβ40 in conditioned medium of cells stably expressing APP, 24 h incubation
Method: BACE Cell-Based Assay (Cell Assay)
The cell-based assay measures inhibition or reduction of Aβ40 in conditioned medium of test compound treated cells expressing amyloid precursor protein.
Cells stably expressing Amyloid Precursor Protein (APP) were plated at a density of 40K cells/well in 96 well plates (Costar). The cells were cultivated for 24 hours at 37° C. and 5% CO2 in DMEM supplemented with 10% FBS. The test compounds were then added to cells in 10-point dose response concentrations with the starting concentration being either 100 μM or 10 μM. The compounds were diluted from stock solutions in DMSO and the final DMSO concentration of the test compounds on cells was 0.1%. After 24 h of incubation with the test compounds the supernatant conditioned media was collected and the Aβ40 levels were determined using a sandwich ELISA. The IC50 of the compound was calculated from the percent of control or percent inhibition of Aβ40 as a function of the concentration of the test compound.
The sandwich ELISA to detect Aβ40 was performed in 96 well microtiter plates, which were pre-treated with goat anti-rabbit IgG (Pierce). The capture and detecting antibody pair that were used to detect Aβ40 from cell supernatants were affinity purified pAb40 (Biosource) and biotinylated 6E10 (Signet Labs Inc.), respectively. The optimal concentration for the pAb40 antibody was 3 μg/ml in Superblock/TBS (Pierce) that was supplemented with 0.05% Tween 20 (Sigma). Optimal concentration for the detection antibody 6E10-biotinylated was 0.5 μg/ml in Superblock/TBS (Pierce) that had been supplemented with 2% normal goat serum and 2% normal mouse serum.
Cellular supernatants were incubated with the capture antibody for 3 h at 4° C., followed by 3 wash steps in TBS-tween (0.05%). The detecting antibody incubation was for 2 h at 4° C., again followed by the wash steps as described previously. The final readout of the ELISA is Time-Resolved Fluorescence (counts per minute) using Delfia reagents Streptavidin-Europium and Enhancement solutions (Perkin Elmer) and the Victor 2 multilabel counter (Perkin Elmer).

T1 sequence (P56817 46-501): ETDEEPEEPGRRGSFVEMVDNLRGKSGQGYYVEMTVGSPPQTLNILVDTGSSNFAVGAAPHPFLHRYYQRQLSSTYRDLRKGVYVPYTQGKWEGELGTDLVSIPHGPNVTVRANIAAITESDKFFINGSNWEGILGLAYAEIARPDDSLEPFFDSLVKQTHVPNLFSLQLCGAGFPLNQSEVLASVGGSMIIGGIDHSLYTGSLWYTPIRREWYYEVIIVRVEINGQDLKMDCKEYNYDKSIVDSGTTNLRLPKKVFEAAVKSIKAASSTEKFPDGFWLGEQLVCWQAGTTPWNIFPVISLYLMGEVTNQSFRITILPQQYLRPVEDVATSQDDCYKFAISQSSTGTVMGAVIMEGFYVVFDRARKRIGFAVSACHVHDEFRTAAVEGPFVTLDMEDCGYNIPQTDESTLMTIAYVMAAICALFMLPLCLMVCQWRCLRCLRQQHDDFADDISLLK

CCc1ccc2c(c1)[C@@H](NC[C@@H](O)[C@H](Cc1ccccc1)Nc1ccc(Cl)nn1)CC1(CCC1)O2 [Example 39, (2R,3S)-3-((6-chloro-3-pyridazinyl)amino)-1-(((4S)-6-ethyl-3,4-dihydrospiro[chromene-2,1′-cyclobutan]-4-yl)amino)-4-phenyl-2-butanol]
IC50 (BACE [1]): 10 to 25 µM
IC50 (BACE [2]): 10 to 25 µM

CC(C)(C)Cc1cnc2c(c1)[C@@H](NC[C@H](O)[C@H](Cc1ccccc1)Nc1ccccc1F)CC1(CCC1)O2 [Example 41, (2S,3S)-1-(((4′S)-6′-(2,2-dimethylpropyl)-3′,4′-dihydrospiro[cyclobutane-1,2′-pyrano[2,3-b]pyridin]-4′-yl)amino)-3-((2-fluorophenyl)amino)-4-phenyl-2-butanol]
IC50 (BACE [1]): 10 to 25 µM
IC50 (BACE [2]): 10 to 25 µM

CCc1ccc2c(c1)[C@@H](NC[C@@H](O)[C@H](Cc1ccccc1)Nc1cccnc1)CC1(CCC1)O2 [Example 43, (2R,3S)-1-(((4S)-6-ethyl-3,4-dihydrospiro[chromene-2,1′-cyclobutan]-4-yl)amino)-4-phenyl-3-(3-pyridinylamino)-2-butanol]
IC50 (BACE [1]): 10 to 25 µM
IC50 (BACE [2]): 10 to 25 µM

CCOc1c(N[C@@H](Cc2cccc(F)c2)[C@H](O)CN[C@H]2CC3(CCC3)Oc3ncc(CC(C)(C)C)cc32)c(=O)c1=O [Example 45, 3-(((1S,2R)-3-(((4′S)-6′-(2,2-dimethylpropyl)-3′,4′-dihydrospiro[cyclobutane-1,2′-pyrano[2,3-b]pyridin]-4′-yl)amino)-1-((3-fluorophenyl)methyl)-2-hydroxypropyl)amino)-4-(ethyloxy)-3-cyclobutene-1,2-dione]
IC50 (BACE [1]): < 0.1 µM
IC50 (BACE [2]): 0.1 to 1 µM
